In ChEMBL document CHEMBL1141514, “QSAR studies on CCR2 antagonists with chiral sensitive hologram descriptors” (Bioorg Med Chem Lett, 2008):

Target: C-C chemokine receptor type 2 (Homo sapiens, UniProt P41597)
Experiment: Antagonist activity at human CCR2b receptor
Format: functional
Settings: read-out: IC50

Sequence of C-C chemokine receptor type 2 (P41597 whole entry): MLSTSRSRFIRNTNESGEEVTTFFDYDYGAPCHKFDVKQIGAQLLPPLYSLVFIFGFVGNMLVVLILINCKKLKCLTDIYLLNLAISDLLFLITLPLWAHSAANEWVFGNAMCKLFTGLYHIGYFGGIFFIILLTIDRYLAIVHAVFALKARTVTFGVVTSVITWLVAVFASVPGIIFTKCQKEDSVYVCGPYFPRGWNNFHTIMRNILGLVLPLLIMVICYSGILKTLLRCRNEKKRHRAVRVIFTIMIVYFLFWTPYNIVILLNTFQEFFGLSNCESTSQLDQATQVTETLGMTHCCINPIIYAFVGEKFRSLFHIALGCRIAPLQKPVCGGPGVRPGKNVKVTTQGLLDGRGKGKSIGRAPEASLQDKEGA

In order of falling IC50:
1. C=CCC(CCN1CCC(c2ccccc2)CC1)C(=O)NCc1cc(C(F)(F)F)cc(C(F)(F)F)c1 (configuration not stated)  0.642 µM
2. O=C(NCc1cc(C(F)(F)F)cc(C(F)(F)F)c1)C(CCN1CCC(c2ccccc2)CC1)C1CC1 (configuration not stated)  0.285 µM
3. O=C(NCc1cc(C(F)(F)F)cc(C(F)(F)F)c1)C(CCN1CCC(c2ccc(F)cc2)CC1)C1CC1 (configuration not stated)  0.28 µM
4. CC(CCN1CCC2(C=Cc3ccccc32)CC1)C(=O)NCc1cc(C(F)(F)F)cc(C(F)(F)F)c1 (configuration not stated)  0.231 µM
5. Nc1nc([C@@H](CCN2CCC(c3ccccc3)CC2)C(=O)NCc2cc(C(F)(F)F)cc(C(F)(F)F)c2)cs1  0.229 µM
6. CC(C)C(CCN1CCC2(C=Cc3ccccc32)CC1)C(=O)NCc1cc(C(F)(F)F)cc(C(F)(F)F)c1 (configuration not stated)  0.204 µM
7. C=CCC(CCN1CCC2(C=Cc3ccccc32)CC1)C(=O)NCc1cc(C(F)(F)F)cc(C(F)(F)F)c1 (configuration not stated)  0.193 µM
8. CCCC(CCN1CCC(c2ccccc2)CC1)C(=O)NCc1cc(C(F)(F)F)cc(C(F)(F)F)c1 (configuration not stated)  0.126 µM
9. O=C(NCc1cc(C(F)(F)F)cc(C(F)(F)F)c1)C(CCN1CCC2(C=Cc3ccccc32)CC1)C1CC1 (configuration not stated)  0.098 µM
10. CS[C@]1(C(=O)NCc2cc(F)cc(C(F)(F)F)c2)CC[C@@H](N2CC[C@]3(C=Cc4ccccc43)[C@@H](C)C2)C1  0.067 µM
11. C[C@H]1CN(CCC(C(=O)NCc2cc(C(F)(F)F)cc(C(F)(F)F)c2)C2CCC2)CC[C@@]12C=Cc1ccccc12 (some centres not stated)  0.028 µM
12. CS[C@]1(C(=O)NCc2cc(C(F)(F)F)cc(C(F)(F)F)c2)CC[C@@H](N2CC[C@]3(C=Cc4ccccc43)[C@@H](C)C2)C1  0.028 µM
13. C[C@H]1CN(CCC(CC2CC2)C(=O)NCc2cc(C(F)(F)F)cc(C(F)(F)F)c2)CC[C@@]12C=Cc1ccccc12 (some centres not stated)  0.025 µM
14. C[C@H]1CN([C@@H]2CC[C@H](C(=O)NCc3cc(C(F)(F)F)cc(C(F)(F)F)c3)C2)CC[C@]12C=Cc1ccccc12  0.02 µM
15. C[C@H]1CN([C@@H]2CC[C@](CC3CCC3)(C(=O)NCc3cc(C(F)(F)F)cc(C(F)(F)F)c3)C2)CC[C@]12C=Cc1ccccc12  0.019 µM
16. CCC[C@]1(C(=O)NCc2cc(C(F)(F)F)cc(C(F)(F)F)c2)CC[C@@H](N2CC[C@]3(C=Cc4ccccc43)[C@@H](C)C2)C1  0.016 µM
17. C[C@H]1CN(CCC(C(=O)NCc2cc(C(F)(F)F)cc(C(F)(F)F)c2)C2CC2)CC[C@@]12C=Cc1ccccc12 (some centres not stated)  0.014 µM
18. CSC[C@]1(C(=O)NCc2cc(C(F)(F)F)cc(C(F)(F)F)c2)CC[C@@H](N2CC[C@]3(C=Cc4ccccc43)[C@@H](C)C2)C1  0.013 µM
19. C[C@H]1CN([C@@H]2CC[C@](C)(C(=O)NCc3cc(C(F)(F)F)cc(C(F)(F)F)c3)C2)CC[C@]12C=Cc1ccccc12  0.009 µM
20. CC(C)C[C@]1(C(=O)NCc2cc(C(F)(F)F)cc(C(F)(F)F)c2)CC[C@@H](N2CC[C@]3(C=Cc4ccccc43)[C@@H](C)C2)C1  0.008 µM
21. CC(C)[C@]1(C(=O)NCc2cc(C(F)(F)F)cc(C(F)(F)F)c2)CC[C@@H](N2CC[C@]3(C=Cc4ccccc43)[C@@H](C)C2)C1  0.0076 µM
22. C[C@H]1CN([C@@H]2CC[C@](C)(C(=O)NCc3cc(F)cc(C(F)(F)F)c3)C2)CC[C@]12C=Cc1ccccc12  0.004 µM
23. CC(C)C[C@]1(C(=O)NCc2cc(F)cc(C(F)(F)F)c2)CC[C@@H](N2CC[C@]3(C=Cc4ccccc43)[C@@H](C)C2)C1  0.0039 µM
24. CSC[C@]1(C(=O)NCc2cc(F)cc(C(F)(F)F)c2)CC[C@@H](N2CC[C@]3(C=Cc4ccccc43)[C@@H](C)C2)C1  0.0035 µM
25. CC(C)[C@]1(C(=O)NCc2cc(F)cc(C(F)(F)F)c2)CC[C@@H](N2CC[C@]3(C=Cc4ccccc43)[C@@H](C)C2)C1  0.0031 µM
26. C[C@H]1CN([C@@H]2CC[C@@](C(=O)NCc3cc(F)cc(C(F)(F)F)c3)(C3CC3)C2)CC[C@]12C=Cc1ccccc12  0.0019 µM

Same assay, conditions: read-out: Log IC50 (converted)

In the case of `O=C(NCc1cc(C(F)(F)F)cc(C(F)(F)F)c1)[C@@H](NCCN1CCC(c2ccccc2)CC1)c1ccccc1`, the IC50 is reported as 0.832 µM.
